Columns and labels:
Assay type in all cases: binding
[1] = tested on: anti-AFB1 antibody; details: pH 6
[2] = tested on: anti-AFB1 Fab; test: FRET immunoassay using Fab fragment (anti-AFB1 Fab), incl. specificity to OTA
Method: Under the condition of 25 mM MEST buffer solution (pH 6.0), AFB1 of various concentrations (0, 0.1, 0.2, 0.5, 1, 2, 10, 20, 50 and 100 ng/mL) was reacted with anti-AFB1 Fab fragments having a constant concentration at room temperature for 20 minutes to obtain AFB1/anti-AFB1 Fab conjugates. The obtained AFB1/anti-AFB1 Fab conjugates were excited at 280 nm to obtain fluorescence spectra (FIG. 7). Referring to FIG. 7, it can be seen that, as the concentration of AFB1 increases, the fluorescence intensity at a wavelength of 350 nm decreases. Particularly, it can also be seen that sensitivity of FRET immunoassay using Fab fragments was much better than that of FRET immunoassay using an intact antibody of Example 1 (FIG. 8). Further, as a result of analysis by lowering the concentration of AFB1, it can be seen that approximately up to 0.09 ng/mL of AFB1 could be detected through FRET immunoassay using Fab fragments. This corresponds to a near 10-fold improvement in terms of sensitivity as compared to FRET immunoassay where an intact antibody of Example 1 was used. […]

[3] = tested on: anti-BaP; test: FRET immunoassay for benzopyrene using antibodies (BaP/anti-BaP conjugate), incl. specificity to pyrene and DBA; details: same concentration as BaP (5 and 20 ng/mL), 10 mM NaHCO3 pH 9.0
Method: Under the condition of 10 mM NaHCO3 buffer solution (pH 9.0), BaPs having various concentrations (0, 0.1, 0.2, 0.5, 1, 2, 5, 10, 20 and 50 ng/mL) were reacted with antibodies having constant concentration at room temperature for 20 minutes to obtain BaP/anti-BaP conjugates. The obtained BaP/anti-BaP conjugates were excited at 280 nm to obtain a fluorescence spectrum (FIG. 18). Referring to FIGS. 18 and 19, it can be seen that, as the concentration of BaP increases, fluorescence intensity at a wavelength of 350 nm decreases, while fluorescence intensity at 435 nm increases at the same time.
Under the condition of 10 mM NaHCO3 buffer solution (pH 9.0), specificity of mouse IgG antibody (anti-Mouse IgG) to 5 ng/mL and 20 ng/mL BaP was investigated using FRET immunoassay. […] Further, specificity of anti-BaP to pyrene and dibenz[a,h]anthracene (DBA) having the same concentration as BaP was investigated.

[4] = tested on: anti-NPT; test: FRET immunoassay for neopterin using antibodies (NPT/anti-NPT conjugate), incl. specificity to BPT; details: 10 mM NaHCO3 pH 9.0
Method: Under the condition of 10 mM NaHCO3 buffer solution (pH 9.0), NPT of various concentrations (0 ng/mL, 0.2 ng/mL, 2 ng/mL and 20 ng/mL) was reacted with antibodies having a constant concentration at room temperature for 20 minutes to obtain NPT/anti-NPT conjugates. The obtained NPT/anti-NPT conjugates were excited at 280 nm to obtain fluorescence spectra (FIG. 14). Referring to FIG. 14, it can be seen that, as the concentration of NPT increases, the fluorescence intensity at a wavelength of 350 nm decreases.
Under the condition of 10 mM NaHCO3 buffer solution (pH 9.0), specificity of mouse IgG antibody (anti-Mouse IgG), IFN-γ antibody (anti-IFN-γ) and CRP antibody (anti-CRP) to 2 ng/mL and 20 ng/mL of NPT was investigated using FRET immunoassay. […] Further, specificity of anti-NPT with BPT having the same concentration as NPT was investigated.

[5] = tested on: anti-OTA antibody; test: FRET immunoassay using an intact antibody (OTA/anti-OTA conjugate); details: 0, 10, 100 ng/mL; 25 mM MEST pH 6.0; excitation 280 nm
Method: (§1) Using 25 mM MEST buffer solution (containing 0.3% Tween 20 in MES buffer solution, pH 6.0), mycotoxins of various concentrations (0 ng/mL, 10 ng/mL and 100 ng/mL) were reacted with antibodies having a constant concentration at room temperature for 20 minutes to obtain mycotoxin/antibody conjugates (AFB1/anti-AFB1 conjugate, OTA/anti-OTA conjugate, and ZEN/anti-ZEN conjugate). The obtained mycotoxin/antibody conjugates were excited at 280 nm to obtain fluorescence spectra (FIG. 4). Referring to FIG. 4, it can be seen that, as the concentration of mycotoxins (AFB1, OTA and ZEN) increases, the fluorescence intensity at a wavelength of 350 nm decreases.

[6] = tested on: anti-ZEN antibody; test: FRET immunoassay using an intact antibody (ZEN/anti-ZEN conjugate); details: 0, 10, 100 ng/mL; 25 mM MEST pH 6.0; excitation 280 nm
Method: as §1

COc1cc2c(c3oc(=O)c4c(c13)CCC4=O)[C@@H]1C=CO[C@@H]1O2 [AFB1, aflatoxin]
fluorescence intensity at 350 nm as concentration increases [1]: decreases
fluorescence intensity at 350 nm as concentration increases ([2]; pH 6): decreases

c1ccc2c(c1)ccc1cc3c(ccc4ccccc43)cc12 [DBA, dibenz[a,h]anthracene]
binding to anti-BaP (specificity) [3]: a little antigen/antibody binding

Nc1nc2ncc([C@H](O)[C@H](O)CO)nc2c(=O)[nH]1 [NPT, neopterin]
fluorescence intensity at 350 nm as concentration increases ([4]; 0, 0.2, 2, 20 ng/mL NPT, excitation 280 nm): decreases

C[C@@H]1Cc2c(Cl)cc(C(=O)N[C@@H](Cc3ccccc3)C(=O)O)c(O)c2C(=O)O1 [OTA, ochratoxin A]
fluorescence intensity at 350 nm as concentration increases [5]: decreases
binding to anti-AFB1 Fab (specificity) ([2]; OTA at same concentration as AFB1 (10 and 50 ng/mL), MEST buffer pH 6.0): no antigen/antibody binding

C[C@H]1CCCC(=O)CCC/C=C/c2cc(O)cc(O)c2C(=O)O1 [ZEN, zearalenone]
fluorescence intensity at 350 nm as concentration increases [6]: decreases

c1cc2ccc3cccc4ccc(c1)c2c34 [pyrene]
binding to anti-BaP (specificity) [3]: a little antigen/antibody binding

biopterin [BPT]
binding to anti-NPT (specificity) ([4]; BPT at same concentration as NPT (2 and 20 ng/mL)): no antigen/antibody binding
